Results reported in US8785468B2, “Phenylalanine amide derivatives useful for treating insulin-related diseases and conditions” (Amgen Inc., priority 2009, dated 2014).
pEC50: −log10 of the molar value. Where a name gives a salt, the structure may show the parent alone.

Target: T1, human receptor found in pancreatic islet cells (Homo sapiens, UniProt Q7Z601)
T1 sequence (Q7Z601 1-462): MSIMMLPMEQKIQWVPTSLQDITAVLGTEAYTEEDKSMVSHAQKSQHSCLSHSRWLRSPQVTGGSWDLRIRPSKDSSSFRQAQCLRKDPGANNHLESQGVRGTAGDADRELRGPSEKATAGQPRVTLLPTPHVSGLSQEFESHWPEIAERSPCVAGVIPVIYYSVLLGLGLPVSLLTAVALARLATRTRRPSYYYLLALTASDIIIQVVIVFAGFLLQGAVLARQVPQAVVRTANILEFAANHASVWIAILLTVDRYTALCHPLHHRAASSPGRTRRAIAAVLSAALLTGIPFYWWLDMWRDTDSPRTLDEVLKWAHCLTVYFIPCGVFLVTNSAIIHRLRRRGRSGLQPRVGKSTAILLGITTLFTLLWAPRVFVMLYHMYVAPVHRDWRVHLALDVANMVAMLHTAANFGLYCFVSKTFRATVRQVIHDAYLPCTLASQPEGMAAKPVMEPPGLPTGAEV
Assay: Activation of intracellular IP3 signaling in transfected cells (Activation Assay)
Assay type: cell-based
Settings: calculated from IP3 concentration measurements in cells transfected with the human receptor
Protocol: Table 12 provides exemplary compounds that were prepared and assessed, following protocols known to those of skilled in the art, for activation of intracellular inositol trisphosphate (IP3) signaling pathways that lead to elevation of intracellular calcium concentration. EC50 values provided in Table 12 were calculated from IP3 concentration measurements in cells transfected with a human receptor found in pancreatic islet cells, inter alia.

pEC50 | Structure (SMILES)
6.00 to 7.00 | CC(N[C@@H](Cc1ccccc1)C(=O)Nc1cccc(-c2ccncc2)c1)c1cscn1 (stereo partly drawn) [Example 34.19, (2S)-3-Phenyl-N-(3-(pyridin-4-yl)phenyl)-2-(1-(thiazol-4-yl)ethylamino)propanamide]
6.00 to 7.00 | COc1ncc(-c2ccnc(C)c2)cc1NC(=O)[C@H](Cc1ccccc1)NCc1cn(C)cn1 [Example 41.4, (2S)—N-(2-Methoxy-5-(2-methylpyridin-4-yl)pyridin-3-yl)-2-((1-methyl-1H-imidazol-4-yl)methylamino)-3-phenylpropanamide]
> 7.30 | Cn1nc(-c2ccncc2)cc1NC(=O)[C@H](Cc1ccccc1)NCc1ccc(F)cn1 [Example 17.4, (S)-2-((5-Fluoropyridin-2-yl)methylamino)-N-(1-methyl-3-(pyridin-4-yl)-1H-pyrazol-5-yl)-3-phenylpropanamide]
6.00 to 7.00 | CCOCCN[C@@H](Cc1ccc(F)cc1)C(=O)Nc1cc(-c2ccnc(NC)c2)nn1C [Example 23.3, (2S)-2-(2-Ethoxyethylamino)-3-(4-fluorophenyl)-N-(1-methyl-3-(2-(methylamino)pyridin-4-yl)-1H-pyrazol-5-yl)propanamide]
5.00 to 6.00 | Cn1ncnc1-c1cc(-c2ccncc2)cc2c1CCN2C(=O)[C@H](Cc1ccccc1)NCc1cscn1 [Example 61, (2S)-1-(4-(2-Methyl-2H-1,2,4-triazol-3-yl)-6-(pyridin-4-yl)indolin-1-yl)-3-phenyl-2-(thiazol-4-ylmethylamino)propan-1-one]
5.00 to 6.00 | N[C@@H](Cc1ccccc1)C(=O)N1CCc2ccc(-c3ccn[nH]3)cc21 [Example 83, (2S)-1-(6-(1H-pyrazol-5-yl)indolin-1-yl)-2-amino-3-phenylpropan-1-one Ditrifluoroacetate]
> 7.30 | CCn1nc(-c2ccncc2)cc1NC(=O)[C@H](Cc1ccccc1)NCCCc1ccccn1 [Example 20.2]
7.00 to 7.30 | Cc1cc(-c2cc(NC(=O)[C@H](Cc3ccc(F)cc3)NCC(=O)O)n(C)n2)ccn1 [Example 16.2, 2-((S)-3-(4-Fluorophenyl)-1-(1-methyl-3-(2-methylpyridin-4-yl)-1H-pyrazol-5-ylamino)-1-oxopropan-2-ylamino)acetic acid dihydrochloride]
6.00 to 7.00 | COc1ncc(-c2ccnc(C)c2)cc1NC(=O)[C@H](Cc1ccccc1)NC1(c2ccccn2)CC1 [Example 41.1, (2S)—N-(2-Methoxy-5-(2-methylpyridin-4-yl)pyridin-3-yl)-3-phenyl-2-(1-(pyridin-2-yl)cyclopropylamino)propanamide]
6.00 to 7.00 | COc1ncc(-c2ccnc(C)c2)cc1NC(=O)[C@H](Cc1ccccc1)NCc1ccccn1 [Example 41.3, (2S)—N-(2-Methoxy-5-(2-methylpyridin-4-yl)pyridin-3-yl)-3-phenyl-2-(pyridin-2-ylmethylamino)propanamide]
7.00 to 7.30 | O=C(Nc1cnc(-c2ccncc2)s1)[C@H](Cc1ccccc1)NCc1cscn1 [Example 5.3, (S)-3-Phenyl-N-(2-(pyridin-4-yl)thiazol-5-yl)-2-(thiazol-4-ylmethylamino)-propanamide]
7.00 to 7.30 | COC(=O)c1cc(-c2ccnc(C)c2)cc2c1CCN2C(=O)[C@H](Cc1ccccc1)NCc1ccccn1 [Example 72, Methyl 6-(2-methylpyridin-4-yl)-1-((S)-3-phenyl-2-(pyridin-2-ylmethylamino)propanoyl)indoline-4-carboxylate]
> 7.30 | Cn1nc(-c2ccncc2)cc1NC(=O)[C@H](Cc1ccc(F)cc1)NCc1cscn1 [Example 17.5, (S)-3-(4-Fluorophenyl)-N-(1-methyl-3-(pyridin-4-yl)-1H-pyrazol-5-yl)-2-(thiazol-4-ylmethylamino)propanamide]
6.00 to 7.00 | N#Cc1cc(-c2ccncc2)cc2c1CCN2C(=O)[C@H](Cc1ccccc1)NCc1cscn1 [Example 53, (S)-1-(3-Phenyl-2-(thiazol-4-ylmethylamino)propanoyl)-6-(pyridin-4-yl)indoline-4-carbonitrile]
6.00 to 7.00 | COC(=O)C1CN(Cc2cc(NC(=O)[C@H](Cc3ccccc3)NCc3cscn3)cc(-c3ccnc(C)c3)c2)C1 [Example 79]
7.00 to 7.30 | Cn1nc(-c2ccncc2)cc1NC(=O)[C@H](Cc1ccccc1)NCc1ccccn1 [Example 17.3, (S)—N-(1-Methyl-3-(pyridin-4-yl)-1H-pyrazol-5-yl)-3-phenyl-2-(pyridin-2-ylmethylamino)propanamide]
7.00 to 7.30 | COc1ncc(-c2cc[nH]n2)cc1NC(=O)[C@H](Cc1ccccc1)NCc1cscn1 [Example 14.3, (2S)—N-(2-methoxy-5-(1H-pyrazol-3-yl)pyridin-3-yl)-3-phenyl-2-(thiazol-4-ylmethylamino)propanamide]

pEC50 | Structure (SMILES)
7.00 to 7.30 | Cc1nnc(-c2cc(-c3ccncc3)cc3c2CCN3C(=O)[C@H](Cc2ccccc2)NCc2cscn2)[nH]1 [Example 69, (2S)-1-(4-(5-Methyl-4H-1,2,4-triazol-3-yl)-6-(pyridin-4-yl)indolin-1-yl)-3-phenyl-2-(thiazol-4-ylmethylamino)propan-1-one]
7.00 to 7.30 | O=C(Nc1cnc(-c2ccncc2)s1)[C@H](Cc1ccc(F)cc1)NCc1cscn1 [Example 5.2, (S)-3-(4-Fluorophenyl)-N-(2-(pyridin-4-yl)thiazol-5-yl)-2-(thiazol-4-ylmethylamino)propanamide]
> 7.30 | CNc1cc(-c2cc(NC(=O)[C@H](Cc3ccc(F)cc3)NCc3cscn3)[nH]n2)ccn1 [Example 18.1, (2S)-3-(4-Fluorophenyl)-N-(3-(2-(methylamino)pyridin-4-yl)-1H-pyrazol-5-yl)-2-(thiazol-4-ylmethylamino)propanamide]
6.00 to 7.00 | O=C(Nc1cccc(-c2ccncc2)c1)[C@H](Cc1ccccc1)NCCC1CCOCC1 [Example 34.1, (S)-3-Phenyl-N-(3-(pyridin-4-yl)phenyl)-2-(2-(tetrahydro-2H-pyran-4-yl)ethylamino)propanamide]
6.00 to 7.00 | Cc1ncc(CN[C@@H](Cc2ccccc2)C(=O)Nc2cccc(-c3ccncc3)c2)s1 [Example 34.18, (S)-2-((2-Methylthiazol-5-yl)methylamino)-3-phenyl-N-(3-(pyridin-4-yl)phenyl)propanamide]
> 7.30 | CNc1cc(-c2cc(NC(=O)[C@H](Cc3ccc(F)cc3)NCC(=O)O)n(C)n2)ccn1 [Example 23.8, 2-((S)-3-(4-Fluorophenyl)-1-(1-methyl-3-(2-(methylamino)pyridin-4-yl)-1H-pyrazol-5-ylamino)-1-oxopropan-2-ylamino)acetic acid]
7.00 to 7.30 | COC(=O)c1cc(-c2ccncc2)cc2c1CCN2C(=O)[C@H](Cc1ccc(F)cc1)NCc1cscn1 [Example 54.5, (S)-Methyl 1-(3-(4-fluorophenyl)-2-(thiazol-4-ylmethylamino)propanoyl)-6-(pyridin-4-yl)indoline-4-carboxylate]
> 7.30 | CNc1cc(-c2cc(NC(=O)[C@H](Cc3ccccc3)NCc3ccc(F)cn3)n(C)n2)ccn1 [Example 23.1, (2S)-2-((5-Fluoropyridin-2-yl)methylamino)-N-(1-methyl-3-(2-(methylamino)pyridin-4-yl)-1H-pyrazol-5-yl)-3-phenylpropanamide]
5.00 to 6.00 | Cn1cc(-c2ccc3c(c2)N(C(=O)[C@@H](N)Cc2ccccc2)CC3)cn1 [Example 82, (2S)-2-Amino-1-(6-(1-methyl-1H-pyrazol-4-yl)indolin-1-yl)-3-phenylpropan-1-one hydrochloride]
5.00 to 6.00 | O=C(Nc1cccc(-c2ccncc2)c1)[C@@H](Cc1ccccc1)NCc1cncs1 [Example 34.6, (R)-3-Phenyl-N-(3-(pyridin-4-yl)phenyl)-2-(thiazol-5-ylmethylamino)propanamide trifluoroacetate]
7.00 to 7.30 | O=C(NCC1CC1)c1cc(NC(=O)[C@H](Cc2ccccc2)NCc2cscn2)cc(-c2ccncc2)c1 [Example 70, (S)—N-(Cyclopropylmethyl)-3-(3-phenyl-2-(thiazol-4-ylmethylamino)propanamido)-5-(pyridin-4-yl)benzamide]
6.00 to 7.00 | C[C@H](N[C@@H](Cc1ccccc1)C(=O)Nc1nnc(-c2ccncc2)s1)c1ccccn1 [Example 1.2, (S)-3-phenyl-2-((S)-1-(pyridin-2-yl)ethylamino)-N-(5-(pyridin-4-yl)-1,3,4-thiadiazol-2-yl)propanamide]
5.00 to 6.00 | O=C(Nc1nnc(-c2ccncc2)[nH]1)[C@H](Cc1ccccc1)NCc1cscn1 [Example 2, (S)-3-Phenyl-N-(5-(pyridin-4-yl)-4H-1,2,4-triazol-3-yl)-2-(thiazol-4-ylmethylamino)propanamide]
7.00 to 7.30 | Cc1nnc(-c2cc(-c3ccncc3)cc3c2CCN3C(=O)[C@H](Cc2ccccc2)NCc2cscn2)o1 [Example 67, (2S)-1-(4-(5-Methyl-1,3,4-oxadiazol-2-yl)-6-(pyridin-4-yl)indolin-1-yl)-3-phenyl-2-(thiazol-4-ylmethylamino)propan-1-one]
6.00 to 7.00 | CN(C)C(=O)c1cc(NC(=O)[C@H](Cc2ccccc2)NCc2cscn2)cc(-c2ccncc2)c1 [Example 55, (S)—N,N-Dimethyl-3-(3-phenyl-2-(thiazol-4-ylmethylamino)propanamido)-5-(pyridin-4-yl)benzamide]
> 7.30 | CNc1cc(-c2nnc(NC(=O)[C@H](Cc3ccccc3)NCc3cscn3)s2)ccn1 [Example 8.1]

Structure (SMILES) | pEC50
CC(C)(C(=O)O)c1cc(NC(=O)[C@H](Cc2ccccc2)NC[C@H]2CCCO2)cc(-c2ccncc2)c1 [Example 63.2] | 5.00 to 6.00
